# B1: Let-7b/c: let-7b and let-7c miRNAs expressed from lentivirus vector (pre-let-7b, pre-let-7c) (nucleic acid, listed as Homo sapiens)
# chain: GCAUCCGGGUUGAGGUAGUAGGUUGUAUGGUUUAGAGUUACACCCUGGGAGUUAACUGUACAACCUUCUAGCUUUCCUUGGAGC
# Experiments:
# [1] = test system: mammary epithelial cells; conditions: cited from earlier work
# [2] = doses of 40 mg and 80 mg; cited from earlier work
# [3] = test system: TGF-β types I and II receptors; conditions: cited from earlier work
# [4] = test system: TGF-β1-induced smad2/3 nuclear localization; conditions: cited from earlier work
# [5] = test system: Smad2/3 phosphorylation; conditions: cited from earlier work
# [6] = test system: let-7 family miRNAs; experiment: qRT-PCR let-7 miRNA expression in endothelial cells; assay type: cell-based, human; conditions: normal EC (HUAEC); U0126 at 10 μM
# Procedure: Quantitative PCR analysis of 88 miRNA was performed using Human Cell Differentiation & Development RT^2 Profiler™ PCR Arrays (MAH-103A, QIAGEN) following the manufacturer's protocol. Validation of microRNA array data was performed with the RT^2 miRNA qPCR Assays and RT-PCR Primer Sets according to the manufacturer's instructions (QIAGEN). Primers for human mature let-7a (MPH00001A), let-7b (MPH00002A), let-7c (MPH00003A), let-7d (MPH00004A), let-7e (MPH00005A), let-7f (MPH00006A), let-7g (MPH00007A), mir-98 (MPH00480A), SNORD47 (MPH01660A) were from QIAGEN. Primers for mouse mature let-7a (MPM00483A), let-7b (MPM00484A), let-7c (MPM485A), let-7d (MPM00486A), let-7e (MPM00487A), let-7f (MPM00488A), let-7g (MPM00489A), let-7i (MPM00490A), mir-98 (MPM00875A) were from QIAGEN. Individual miRNA expression was normalized in relation to expression or small nuclear U6B RNA, a commonly used internal control for miRNA quantification assay. PCR amplification consisted of 10 min of an initial denaturation step at 95° C., followed by 45 cycles of PCR at 95° C. for 30 s, 60° C. for 30 s.
# Recombinant human FGF2 (R&D) and TGFβ1 (Peprotech) were reconstituted in 0.1% BSA/PBS. U0126 (Sigma), a MEK inhibitor, was reconstituted in DMSO and used at a final concentration of 10 μM. […]
# [7] = test system: HUAEC; experiment: qRT-PCR mRNA expression of TGFβ signaling and Endo-MT markers in endothelial cells; assay type: cell-based, human; conditions: primary EC in vitro following FRS2 knockdown; lentiviral let-7 expression
# From the text: Human 293T T17 cells (ATCC CRL-11268) were maintained in Dulbecco's modified Eagle's medium (Gibco) with 10% fetal bovine serum (Invitrogen) and penicillinstreptomycin (Gibco). Primary human mammary epithelial cells (HuMEC, Invitrogen), were maintained in HuMEC basal serum free medium with HuMEC supplement (Invitrogen 12754-016) and bovine pituitary extract (Invitrogen 13028-014). Human foreskin cells (ATCC CRL-1079Sk) were maintained in Minimum Essential Medium (ATCC) with 10% fetal bovine serum (Hyclone), β-mercaptoethanol (Sigma), and penicillin-streptomycin (Gibco). Primary human atrial cells (passage 3-5; gift from Y. Qyang, Yale University School of Medicine) were maintained in Dulbecco's modified Eagle's medium (Gibco) with 10% fetal bovine serum (Invitrogen), L-glutamine (Gibco), Sodium pyruvate (Gibco), Non-essential amino acid (Gibco), and penicillin-streptomycin (Gibco). HUAEC (human umbilical artery endothelial cells, passage 5-10, Lonza) were cultured in EBM-2 supplemented with EGM-2-MV bullet kit (Lonza). HUVEC (human umbilical vein endothelial cells, passage 3-7, Yale Vascular Biology and Therapeutics) were cultured in M199 with ECGS, supplemented with 20% FBS (Sigma), L-glutamine (Gibco), and penicillin-streptomycin (Gibco). Culture vessels were coated with 0.1% gelatin (Sigma) for 30 min at 37° C. immediately prior to cell seeding. Primary mouse endothelial cells were isolated from the heart using rat anti-mouse CD31 antibody and Dynabeads (Invitrogen) as previously described (Partovian C, et al. Mol Cell. 32(1):140 (2008)).
# RNA was isolated using RNeasy® plus Mini Kit (Qiagen) and converted to cDNA using iScript™ cDNA synthesis kit (Bio-Rad). Quantitative real-time PCR (qRT-PCR) was performed using Bio-Rad […] (Bio-Rad) by mixing equal amount of eDNAs, iQ™ SYBR® Green Supermix (Bio-Rad) and gene specific primers. All reactions were done in a 25 μl reaction volume in duplicate. Data were normalized to endogenous β-actin. Values are expressed as fold change in comparison to control. Mouse TGFβ gene expression was quantified via qRT-PCR with TaqMan® Gene Expression Assays (Mm00441726_m1; Applied Biosystems) and HPRT (Mm00441258_1; Applied Biosystems) as endogenous control followed the manufacturer's recommendation. Quantitative PCR analysis of 84 TGFβ and epithelial to mesenchymal transition (EMT) related genes were performed using Human TGFβ BMP signaling pathway (PAHS-035D, QIAGEN) and Human Epithelial to Mesenchymal Transition (PAHS-090D, QIAGEN) RT^2 Profiler™ PCR Arrays following the manufacturer's protocol. RT^2 Profiler™ PCR arrays were run on a Bio-Rad CFX96 machine (Bio-Rad). Duplicate arrays were run per condition for control and FRS2 knockdown human umbilical arterial endothelial cells (HUAEC). Data analysis was performed using the manufacturer's integrated web-based software package for the PCR Array System using cycle threshold (Ct)-based fold-change calculations.
# Recombinant human FGF2 (R&D) and TGFβ1 (Peprotech) were reconstituted in 0.1% BSA/PBS. U0126 (Sigma), a MEK inhibitor, was reconstituted in DMSO and used at a final concentration of 10 μM. SB431542 (Sigma), a TGFBR1 kinase inhibitor, was reconstituted in DMSO and used at a final concentration of 10 μM in cell culture. Actinomycin D (Sigma), a DNA transcription suppressor, was reconstituted in acetone and used at a final concentration of 10 μg/ml in cell culture. […]
molecule,measurement,setting,value
"Cc1cccc(-c2nc(NCc3cccc(C#N)c3)sc2-c2ccc3ncnn3c2)n1 [EW-7203, 3((5-([1,2,4]triazolo[1,5-a]pyridin-6-yl)-4-(6-methylpyridin-2-yl)thiazol-2-ylamino)methyl)benzonitrile]",Endo-MT,[1],inhibits
same,TGF-β1-induced Smad signaling,[1],inhibits
"Cc1cccc(-c2nn3c(c2-c2ccnc4ccc(C(N)=O)cc24)CCC3)n1 [LY2157299, 4-(2-(6-methylpyridin-2-yl)-5,6-dihydro-4H-pyrrolo[1,2-b]pyrazol-3-yl)quinoline-6-carboxamide]",Tolerability,[2],well tolerated
"CCCCc1nc(Cl)c(CO)n1Cc1ccc(-c2ccccc2-c2nnn[nH]2)cc1 [Losartan, (2-butyl-4-chloro-1-{[2′-(1H-tetrazol-5-yl)biphenyl-4-yl]methyl}-1H-imidazol-5-yl)methanol]",Expression of TGF-β types I and II receptors,[3],downregulate
"Cc1cccc(-c2[nH]c(C(C)(C)C)nc2-c2ccc3nccnc3c2)n1 [SB525334, 6-[2-(1,1-Dimethylethyl)-5-(6-methyl-2-pyridinyl)-1H-imidazol-4-yl]quinoxaline]",TGF-β1-induced mRNA expression,[4],inhibits
same,TGF-β1-induced smad2/3 nuclear localization,[4],inhibits
"Cc1cccc(-c2nc(C34CCC(C(N)=O)(CC3)CC4)[nH]c2-c2ccc3c(c2)OCO3)n1 [SM16, 4-(5-(benzo[d][1,3]dioxol-5-yl)-4-(6-methylpyridin-2-yl)-1H-imidazol-2-yl)bicyclo[2.2.2]octane-1-carboxamide]",TGF-β and activin-induced Smad2/3 phosphorylation,[5],blocks
N#CC(=C(/N)Sc1ccccc1N)/C(C#N)=C(\N)Sc1ccccc1N [U0126],Expression of let-7 family miRNAs,[6],decrease
FGF2: Recombinant human FGF2 (R&D),Expression of let-7 family miRNAs,[6],time dependent increase
B1,Expression of all SMC and mesenchymal markers,[7],declined to pre-FRS2 knockdown levels
same,TGFβR1 and SMAD2 expression,[7],fully inhibited
